In patent US20220402935A1, “HETEROCYCLIC COMPOUND” (FIMECS, INC., priority 2019, published 2022) one finds remaining binding, IC50 and DC50 data, which are given here for eleven compounds.

The target of assay [1] is T1, IRAK-M (Homo sapiens, UniProt Q9Y616).
T1 sequence (Q9Y616 1-596): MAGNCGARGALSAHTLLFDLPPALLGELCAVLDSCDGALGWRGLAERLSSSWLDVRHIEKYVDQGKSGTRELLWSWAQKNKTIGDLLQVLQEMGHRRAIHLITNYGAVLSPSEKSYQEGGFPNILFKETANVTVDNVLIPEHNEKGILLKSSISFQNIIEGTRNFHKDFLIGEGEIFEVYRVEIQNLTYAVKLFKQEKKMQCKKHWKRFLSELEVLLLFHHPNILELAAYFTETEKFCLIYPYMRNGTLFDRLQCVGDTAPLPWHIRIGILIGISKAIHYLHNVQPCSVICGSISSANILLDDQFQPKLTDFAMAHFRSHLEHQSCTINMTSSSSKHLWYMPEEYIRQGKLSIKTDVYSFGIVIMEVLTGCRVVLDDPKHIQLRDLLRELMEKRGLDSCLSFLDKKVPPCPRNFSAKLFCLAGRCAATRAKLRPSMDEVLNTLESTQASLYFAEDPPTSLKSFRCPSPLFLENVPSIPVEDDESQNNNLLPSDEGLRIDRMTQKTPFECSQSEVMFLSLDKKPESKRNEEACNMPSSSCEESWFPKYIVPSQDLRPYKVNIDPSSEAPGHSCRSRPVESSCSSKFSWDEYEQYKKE
In words: IRAK-M binding inhibitory activity (KINOMEscan active site-dependent competitive assay). Conditions: for remaining binding at 1 µM: concentration of the test compound 1 μM, first symbol of cell, read-out: IRAK-M binding inhibition activity % Ctrl; for IC50: second symbol of cell, read-out: IRAK-M binding inhibition IC50 value. Also noted: purchased Eurofins Discover X. A digest of the protocol:
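Readout given as % Ctrl, with DMSO as 100% and a control compound as 0%, scaling the test compound signal between them. Binding to human IRAK-M was assessed by KINOMEscan competition at the kinase active site.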

In assay [2] the target is T2, human XIAP_BIR3 domain purified protein (Homo sapiens, UniProt P98170).
T2 construct: purchased R & D
T2 sequence (P98170 252-356 limits assumed): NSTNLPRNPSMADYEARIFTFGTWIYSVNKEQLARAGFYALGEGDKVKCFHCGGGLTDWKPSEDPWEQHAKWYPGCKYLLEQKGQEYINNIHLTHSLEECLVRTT
The assay is described as follows: XIAP binding inhibitory activity (HTRF, b-Smac ligand). Conditions: second symbol of cell; read-out: XIAP binding inhibition IC50 value. A digest of the protocol:
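HTRF competition between compound and C-terminally biotinylated Smac peptide AVPIAQK for His-tagged XIAP BIR3, both diluted to 90 nM before addition, in pH 7.5 HEPES/NaCl/BSA/Triton buffer. Eu-cryptate anti-His and streptavidin-XL665 added, ≥4 h at room temperature in the dark; inhibition % from 665/615 nm ratio versus no-compound wells.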
Background: TR-FRET usually uses a lanthanide donor and a delayed reading to cut background.

Assay [3] has as its target T1, IRAK-M. In words: In vitro degradation activity of target protein (IRAK-M ELISA in THP1 cells). It counts as cell-based. Also noted: host or cells: THP1 cells. Conditions: 24 hours, second symbol of cell, read-out: IRAK-M 50% degradation concentration (DC50 value). Here is the method: In vitro degradation activities of target protein of the example compounds were evaluated using Enzyme-linked immuno-sorbent assay (ELISA) by the following assay steps. THP1 cells (ATCC, TIB-202) were cultured in RPMI-1640 supplemented with 10% FBS, lx sodium pyruvate, lx HEPES, D-(+)-glucose and 1% penicillin/streptomycin. THP1 cells were seeded at a density of 1×10^6 cells/well in 24-well plate and treated with DMSO control or test compound, and then incubated for 24 hours. The cells were collected and lysed on ice for 30 minutes in lysis buffer (PBS containing 0.1% Triton X-100) containing a protease inhibitor cocktail (Roche, Cat #11836170001). The lysates were sonicated for 30 sec ON/30 sec OFF for ten cycles and centrifuged for 10 minutes at 13k rpm at 4° C. Protein concentrations were determined by the BCA assay (Sigma, Cat #QPBCA-1KT). The ELISA assay was performed using the Human IRAK3/IRAKM/IRAK-M ELISA Kit (LifeSpan BioSciences, Cat #LS-F35271), and the protein levels of IRAK-M were evaluated according to the kit protocol. As to the IRAK-M degradation rate of test compounds, protein degradation rate (%) when the concentration of the test compound is […] described as A≥75%, 50%≤B<75%, 25%≤C<50%, D<25%, or 50% degradation concentration (DC50 value) described as A<0.03 μM, 0.03 μM≤B<0.1 μM, 0.1 μM≤C<0.3 μM, 0.3 μM≤D<1 μM, is shown in the table below.
(In general: ELISA stands for enzyme-linked immunosorbent assay.)

What is called IC50 is the concentration that inhibits the measured activity by half.

Regarding `CN[C@@H](C)C(=O)N[C@H](C(=O)N1CCN(C(=O)c2cc3c(OCCOCCOCCOCCOc4cc(CN5CCC(Oc6ccnc7ccsc67)CC5)on4)c(F)c(F)cc3n2C)CC1)C1CCCCC1` [Example 51, (S)-N-((S)-1-cyclohexyl-2-(4-(5,6-difluoro-1-methyl-4-(2-(2-(2-(2-((5-((4-(thieno[3,2-b]pyridin-7-yloxy)piperidin-1-yl)methyl)isoxazol-3-yl)oxy)ethoxy)ethoxy)ethoxy)ethoxy)-1H-indole-2-carbonyl)piperazin-1-yl)-2-oxoethyl)-2-(methylamino)propanamide], the remaining binding at 1 µM at IRAK-M [1] was under 25%. Besides, the IC50 in assay [2] is 300 to 3000 nM. The DC50 at IRAK-M [3] fell in the range of 100 to 300 nM.

Consider `CN[C@@H](C)C(=O)N[C@H](C(=O)N1CCN(C(=O)c2c(C)c3ccccc3n2CC(=O)N(C)CCOCCOCCOCCOc2cc(CN3CCC(Oc4ccnc5ccsc45)CC3)on2)CC1)C1CCCCC1` [Example 35, (S)-N-((S)-1-cyclohexyl-2-(4-(3-methyl-1-(3-methyl-2-oxo-14-((5-((4-(thieno[3,2-b]pyridin-7-yloxy)piperidin-1-yl)methyl)isoxazol-3-yl)oxy)-6,9,12-trioxa-3-azatetradecyl)-1H-indole-2-carbonyl)piperazin-1-yl)-2-oxoethyl)-2-(methylamino)propanamide], for which, on IRAK-M [1], the remaining binding at 1 µM is 25 to 50%. In assay [2], the IC50 is 3000 to 30000 nM. For the same compound, the DC50 at IRAK-M [3] was in the range of 300 to 1000 nM.

For the compound `CN[C@@H](C)C(=O)N[C@H](C(=O)N1CCN(C(=O)c2c(F)c3cc(F)ccc3n2CC(=O)N(C)CCOCCOCCOCCOc2cc(CN3CCC(Oc4ccnc5ccsc45)CC3)on2)CC1)C1CCCCC1` [Example 36, (S)-N-((S)-1-cyclohexyl-2-(4-(3,5-difluoro-1-(3-methyl-2-oxo-14-((5-((4-(thieno[3,2-b]pyridin-7-yloxy)piperidin-1-yl)methyl)isoxazol-3-yl)oxy)-6,9,12-trioxa-3-azatetradecyl)-1H-indole-2-carbonyl)piperazin-1-yl)-2-oxoethyl)-2-(methylamino)propanamide], the remaining binding at 1 µM at IRAK-M [1] was 25 to 50%. For the same compound, the IC50 in assay [2] was 3000 to 30000 nM. For the same compound, the DC50 on IRAK-M [3] lay within 300 to 1000 nM.

On to `CN[C@@H](C)C(=O)N[C@H](C(=O)N1CCN(C(=O)c2cc3cc(F)c(F)cc3n2CC(=O)N2CCC[C@H]2COc2cc(CN3CCC(Oc4ccnc5ccsc45)CC3)on2)[C@@H](C)C1)C1CCC(F)(F)CC1` [Example 49, (S)-N-((S)-2-((S)-4-(5,6-difluoro-1-(2-oxo-2-((S)-2-(((5-((4-(thieno[3,2-b]pyridin-7-yloxy)piperidin-1-yl)methyl)isoxazol-3-yl)oxy)methyl)pyrrolidin-1-yl)ethyl)-1H-indole-2-carbonyl)-3-methylpiperazin-1-yl)-1-(4,4-difluorocyclohexyl)-2-oxoethyl)-2-(methylamino)propanamide], for which the IC50 in assay [2] fell in the range of 3000 to 30000 nM. Also, the DC50 on IRAK-M [3] fell in the range of 30 to 100 nM.

For `CN[C@@H](C)C(=O)N[C@H](C(=O)N1CCN(C(=O)c2cc3cc(F)c(F)cc3n2CC(=O)N2CCC[C@H]2COc2cc(CN3CCC(Oc4ccnc5ccsc45)CC3)on2)CC1)C1CCC(F)(F)CC1` [Example 48, (S)-N-((S)-2-(4-(5,6-difluoro-1-(2-oxo-2-((S)-2-(((5-((4-(thieno[3,2-b]pyridin-7-yloxy)piperidin-1-yl)methyl)isoxazol-3-yl)oxy)methyl)pyrrolidin-1-yl)ethyl)-1H-indole-2-carbonyl)piperazin-1-yl)-1-(4,4-difluorocyclohexyl)-2-oxoethyl)-2-(methylamino)propanamide], the IC50 in assay [2] fell in the range of 3000 to 30000 nM. Also, the DC50 on IRAK-M [3] was in the range of 100 to 300 nM.

As for `C[C@@H]1CN(CC(=O)N2CCN(C(=O)c3cc4cc(F)c(F)cc4n3C)C[C@H]2C)[C@@H](COCCOCCOc2cc(CN3CCC(Oc4ccnc5ccsc45)CC3)on2)CN1` [Example 20, 1-((R)-4-(5,6-difluoro-1-methyl-1H-indole-2-carbonyl)-2-methylpiperazin-1-yl)-2-((2R,5R)-5-methyl-2-((2-(2-((5-((4-(thieno[3,2-b]pyridin-7-yloxy)piperidin-1-yl)methyl)isoxazol-3-yl)oxy)ethoxy)ethoxy)methyl)piperazin-1-yl)ethan-1-one], on IRAK-M [1], the remaining binding at 1 µM was 25 to 50%. For the same compound, in assay [2], the IC50 is 300 to 3000 nM.

With `CN[C@@H](C)C(=O)N[C@H](C(=O)N1CCN(C(=O)c2c(C(=O)N(C)CCOCCOCCOc3cc(CN4CCC(Oc5ccnc6ccsc56)CC4)on3)c3cc(F)ccc3n2C)CC1)C1CCCCC1` [Example 3, 2-(4-((S)-2-cyclohexyl-2-((S)-2-(methylamino)propanamido)acetyl)piperazine-1-carbonyl)-5-fluoro-N,1-dimethyl-N-(2-(2-(2-((5-((4-(thieno[3,2-b]pyridin-7-yloxy)piperidin-1-yl)methyl)isoxazol-3-yl)oxy)ethoxy)ethoxy)ethyl)-1H-indole-3-carboxamide], the results for the IC50 (at IRAK-M [1]; in assay [2]) were 100 to 300 nM and 300 to 3000 nM, respectively.

Turning to `Cc1cc2ccc(C(=O)N3CCN(C(=O)CN4C[C@@H](C)NC[C@@H]4COCCOCCOCCOc4cc(CN5CCC(Oc6ccnc7ccsc67)CC5)on4)CC3)cn2c1` [Example 18, 2-((2R,5R)-5-methyl-2-((2-(2-(2-((5-((4-(thieno[3,2-b]pyridin-7-yloxy)piperidin-1-yl)methyl)isoxazol-3-yl)oxy)ethoxy)ethoxy)ethoxy)methyl)piperazin-1-yl)-1-(4-(2-methylindolizine-6-carbonyl)piperazin-1-yl)ethan-1-one], the IC50 on IRAK-M [1] is 300 to 1000 nM; in assay [2] it was under 300 nM.

In the case of `CN[C@@H](C)C(=O)N[C@H](C(=O)N1CCN(C(=O)c2ccc3c(c2)cc(C)n3CCOCCOCCOc2cc(CN3CCC(Oc4ccnc5ccsc45)CC3)on2)CC1)C1CCCCC1` [Example 55, (S)-N-((S)-1-cyclohexyl-2-(4-(2-methyl-1-(2-(2-(2-((5-((4-(thieno[3,2-b]pyridin-7-yloxy)piperidin-1-yl)methyl)isoxazol-3-yl)oxy)ethoxy)ethoxy)ethyl)-1H-indole-5-carbonyl)piperazin-1-yl)-2-oxoethyl)-2-(methylamino)propanamide], at IRAK-M [1], the remaining binding at 1 µM was 25 to 50%. Besides, in assay [2], the 50% inhibitory concentration (IC50) was 300 to 3000 nM.

With `CN[C@@H](C)C(=O)N[C@H](C(=O)N1CCN(C(=O)c2c(C(=O)NCCOCCOCCOc3cc(CN4CCC(Oc5ccnc6ccsc56)CC4)on3)c3cc(F)c(OC)cc3n2C)CC1)C1CCCCC1` [Example 13, 2-(4-((S)-2-cyclohexyl-2-((S)-2-(methylamino)propanamido)acetyl)piperazine-1-carbonyl)-5-fluoro-6-methoxy-1-methyl-N-(2-(2-(2-((5-((4-(thieno[3,2-b]pyridin-7-yloxy)piperidin-1-yl)methyl)isoxazol-3-yl)oxy)ethoxy)ethoxy)ethyl)-1H-indole-3-carboxamide], the remaining binding at 1 µM at IRAK-M [1] was under 25%. Further, in assay [2], the IC50 was under 300 nM.

`CN[C@@H](C)C(=O)N[C@H](C(=O)N1CCN(C(=O)c2c(C(=O)NCCOCCOCCOc3cc(CN4CCC(Oc5ccnc6ccsc56)CC4)n(C)n3)c3cc(F)c(F)cc3n2C)CC1)C1CCCCC1` [Example 7, 2-(4-((S)-2-cyclohexyl-2-((S)-2-(methylamino)propanamido)acetyl)piperazine-1-carbonyl)-5,6-difluoro-1-methyl-N-(2-(2-(2-((1-methyl-5-((4-(thieno[3,2-b]pyridin-7-yloxy)piperidin-1-yl)methyl)-1H-pyrazol-3-yl)oxy)ethoxy)ethoxy)ethyl)-1H-indole-3-carboxamide]: at IRAK-M [1], the remaining binding at 1 µM lay in the range of 25 to 50%. Besides, the IC50 in assay [2] was 300 to 3000 nM.
